Data taken from patent publication EP0938471B1, “THE PREPARATION AND USE OF ORTHO-SULFONAMIDO ARYL HYDROXAMIC ACIDS AS MATRIX METALLOPROTEINASE AND TACE INHIBITORS” (priority 1996, dated 1998).
pIC50: −log10 of the molar value. Where two headings read alike, the source gives them in different places.

Experiments:
Format in all cases: biochemical
[1] = molecular target: T1, MMP-1 (Homo sapiens, UniProt P03956); assay: MMP-1 inhibition (thiopeptide or fluorescent peptide substrate assay); details: for inhibition at 1 µM: read-out: MMP-1 % inhibition, footnote: 1µM; for pIC50: read-out: MMP-1 IC50; for MMP-1 % inhibition: concentration given as (10), unit not given
T1 sequence (P03956 100-469): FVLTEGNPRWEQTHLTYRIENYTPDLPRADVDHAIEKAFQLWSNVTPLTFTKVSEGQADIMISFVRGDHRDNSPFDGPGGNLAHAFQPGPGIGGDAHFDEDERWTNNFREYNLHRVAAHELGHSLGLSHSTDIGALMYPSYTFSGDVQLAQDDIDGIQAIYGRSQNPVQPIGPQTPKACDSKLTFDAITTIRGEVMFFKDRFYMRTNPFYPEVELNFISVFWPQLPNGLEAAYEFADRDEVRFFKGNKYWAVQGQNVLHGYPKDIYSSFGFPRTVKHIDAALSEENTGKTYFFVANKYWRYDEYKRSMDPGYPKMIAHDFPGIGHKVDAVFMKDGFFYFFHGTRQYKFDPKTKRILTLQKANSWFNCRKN

[2] = molecular target: MMP-9 (Homo sapiens, UniProt P14780); assay: MMP-9 inhibition (thiopeptide or fluorescent peptide substrate assay); details: for inhibition at 1 µM: read-out: MMP-9 % inhibition, footnote: 1µM; for pIC50: read-out: MMP-9 IC50
Chain of MMP-9 (P14780 94-707): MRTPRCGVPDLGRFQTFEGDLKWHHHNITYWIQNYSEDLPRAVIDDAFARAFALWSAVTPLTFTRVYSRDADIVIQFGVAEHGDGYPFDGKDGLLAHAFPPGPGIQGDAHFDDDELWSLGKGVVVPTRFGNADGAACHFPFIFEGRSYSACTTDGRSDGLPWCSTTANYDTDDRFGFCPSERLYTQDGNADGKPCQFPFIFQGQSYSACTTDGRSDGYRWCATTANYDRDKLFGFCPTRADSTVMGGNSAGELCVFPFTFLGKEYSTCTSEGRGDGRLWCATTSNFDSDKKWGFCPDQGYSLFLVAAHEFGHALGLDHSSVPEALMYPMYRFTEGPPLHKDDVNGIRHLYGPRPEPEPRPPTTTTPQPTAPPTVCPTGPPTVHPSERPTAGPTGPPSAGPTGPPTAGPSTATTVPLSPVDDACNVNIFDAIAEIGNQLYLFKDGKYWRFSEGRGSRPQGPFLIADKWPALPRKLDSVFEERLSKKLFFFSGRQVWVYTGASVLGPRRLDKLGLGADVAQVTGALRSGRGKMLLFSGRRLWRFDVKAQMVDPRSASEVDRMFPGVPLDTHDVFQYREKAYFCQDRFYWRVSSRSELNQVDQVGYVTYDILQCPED

[3] = molecular target: MMP-13 (Homo sapiens, UniProt P45452); assay: MMP-13 inhibition (thiopeptide or fluorescent peptide substrate assay); details: for inhibition at 1 µM: read-out: MMP-13 % inhibition, footnote: 1µM
[4] = molecular target: TACE (Homo sapiens, UniProt P78536); assay: TACE inhibition (fluorescent peptidyl substrate)
Chain of TACE (P78536 215-824): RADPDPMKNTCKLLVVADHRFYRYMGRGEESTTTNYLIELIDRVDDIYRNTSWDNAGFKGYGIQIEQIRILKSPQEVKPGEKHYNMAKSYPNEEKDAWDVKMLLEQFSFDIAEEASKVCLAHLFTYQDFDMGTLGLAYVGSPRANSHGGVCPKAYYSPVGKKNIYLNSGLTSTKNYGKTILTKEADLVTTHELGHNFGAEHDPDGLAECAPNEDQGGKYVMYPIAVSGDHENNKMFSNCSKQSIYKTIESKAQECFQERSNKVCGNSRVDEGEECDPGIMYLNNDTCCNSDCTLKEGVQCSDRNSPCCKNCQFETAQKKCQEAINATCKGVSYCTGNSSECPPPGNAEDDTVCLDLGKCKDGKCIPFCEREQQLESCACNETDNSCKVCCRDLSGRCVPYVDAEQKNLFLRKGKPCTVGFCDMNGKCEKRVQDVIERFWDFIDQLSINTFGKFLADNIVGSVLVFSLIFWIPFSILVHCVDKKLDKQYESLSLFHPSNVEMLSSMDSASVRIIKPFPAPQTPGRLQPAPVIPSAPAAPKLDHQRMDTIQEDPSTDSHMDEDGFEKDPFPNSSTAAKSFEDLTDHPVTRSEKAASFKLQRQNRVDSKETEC

| inhibition at 1 µM [1] | inhibition at 1 µM [2] | inhibition at 1 µM [3] | pIC50 ([4]; read-out: TACE IC50) | pIC50 [1] | pIC50 [2] | pIC50 [3] | pIC50 [4] | pIC50 ([3]; read-out: MMP-13 IC50) | inhibition at 1 µM ([4]; at 1µM concentration) | MMP-1 % inhibition [1] | Structure (SMILES) |
| --- | --- | --- | --- | --- | --- | --- | --- | --- | --- | --- | --- |
| 10% | 45% | 36% | 6.55 | – | – | – | – | – | – | – | Cc1cc(Br)cc(C(=O)NO)c1N(Cc1ccccc1)S(=O)(=O)c1ccc(OCc2ccccc2)cc1 [Example 308] |
| – | – | – | – | 6.22 | 8.30 | 7.85 | 6.76 | – | – | – | COc1ccc(S(=O)(=O)N(C)c2c(CN3CCOCC3)cccc2C(=O)NO)cc1 [Example 309, N-Hydroxy-2-[(4-methoxy-benzenesulfonyl)-methyl-amino]-3-morpholin-4-ylmethyl-benzamide] |
| – | – | – | 6.81 | 5.32 | 7.68 | – | – | 7.00 | – | – | COc1ccc(S(=O)(=O)N(C)c2c(CN3CCCC3)cccc2C(=O)NO)cc1 [Example 310, N-Hydroxy-2-[(4-methoxy-benzenesulfonyl)-methyl-amino]-3-pyrrolidin-1-ylmethyl-benzamide] |
| – | – | – | – | 6.11 | 8.00 | 7.37 | 6.80 | – | – | – | COc1ccc(S(=O)(=O)N(C)c2c(Cn3ccnc3)cccc2C(=O)NO)cc1 [Example 311, N-Hydroxy-3-imidazol-1-ylmethyl-2-[(4-methoxy-benzenesulfonyl)-methyl-amino]-benzamide] |
| – | – | – | 7.57 | 6.02 | 8.08 | – | – | 7.89 | – | – | COc1ccc(S(=O)(=O)N(C)c2c(CN3CCCC3)cc(Br)cc2C(=O)NO)cc1 [Example 314, 5-Bromo-N-hydroxy-2-[(4-methoxy-benzenesulfonyl)-methylamino]-3-pyrrolidin-1-ylmethyl-benzamide] |
| – | – | – | 6.85 | 5.66 | 7.34 | – | – | 6.82 | – | – | COc1ccc(S(=O)(=O)N(Cc2cccnc2)c2c(CN3CCCC3)cccc2C(=O)NO)cc1 [Example 320, N-Hydroxy-2-[(4-methoxy-benzenesulfonyl)-pyridin-3-ylmethyl-amino]-3-pyrrolidin-1-ylmethyl-benzamide] |
| 15% | 49% | 60% | 5.79 | – | 8.62 | – | – | 8.72 | 47% | – | CCCCCCCCN(c1c(CN2CCN(C)CC2)cccc1C(=O)NO)S(=O)(=O)c1ccc(OC)cc1 [Example 325, N-Hydroxy-2-[(4-methoxy-benzenesulfonyl)-octyl-amino]-3-(4-methyl-piperazin-1-ylmethyl)-benzamide] |
| – | – | – | 6.58 | 6.49 | 8.31 | – | – | 7.89 | – | – | COc1ccc(S(=O)(=O)N(Cc2ccsc2)c2c(CN3CCN(C)CC3)cccc2C(=O)NO)cc1 [Example 328, N-Hydroxy-2-[(4-methoxy-benzenesulfonyl)-thiophen-3-ylmethyl-amino]-3-(4-methyl-piperazin-1-ylmethyl)-benzamide] |
| – | – | – | 6.76 | 6.50 | 8.21 | – | – | 7.64 | – | – | COc1ccc(S(=O)(=O)N(Cc2ccccc2)c2c(CN3CCN(C)CC3)cccc2C(=O)NO)cc1 [Example 329, N-Hydroxy-2-[[(4-methoxyphenyl)sulfonyl](phenylmethyl)-amino]-3-[(4-methyl-1-piperazinyl)methyl]benzamide] |
| – | – | – | 6.25 | 6.67 | 8.28 | – | – | 8.24 | – | – | COc1ccc(S(=O)(=O)N(Cc2cccnc2)c2c(COC3CCCCO3)cccc2C(=O)NO)cc1 (stereo not drawn) [Example 339, N-Hydroxy-2-[(4-methoxy-benzenesulfonyl)-pyridin-3-ylmethyl-amino]-3-(tetrahydro-pyran-2-yloxymethyl)-benzamide] |
| – | – | – | 6.96 | 6.28 | 7.96 | – | – | 7.52 | – | – | COc1ccc(S(=O)(=O)N(Cc2cccnc2)c2c(CO)cccc2C(=O)NO)cc1 [Example 340, N-Hydroxy-3-hydroxymethyl-2-[(4-methoxy-benzenesulfonyl)-pyridin-3-ylmethyl-amino]-benzamide] |
| – | – | – | 6.28 | 5.94 | 7.51 | – | – | 6.87 | – | – | COc1ccc(S(=O)(=O)N(Cc2ccccc2)c2c(OCCO)cccc2C(=O)NO)cc1 [Example 345, 2-[Benzyl-(4-methoxy-benzenesulfonyl)-amino]-N-hydroxy-3-(2-hydroxy-ethoxy)-benzamide] |
| – | – | – | 7.49 | 6.40 | 8.10 | – | – | 8.05 | – | – | COc1ccc(S(=O)(=O)N(C)c2c(CCC(=O)NO)cc(Br)cc2C(=O)NO)cc1 [Example 349, 5-Bromo-N-hydroxy-3-[2-(hydroxycarbamoyl)-ethyl]-2-[(4-methoxy-benzenesulfonyl)-methyl-amino]-benzamide] |
| – | – | – | 6.43 | 6.35 | 8.30 | – | – | 7.68 | – | – | COc1ccc(S(=O)(=O)N(C)c2c(CCC(=O)NO)cccc2C(=O)NO)cc1 [Example 350] |
| 23% | – | – | 6.11 | – | 7.21 | – | – | 6.85 | – | – | COc1ccc(S(=O)(=O)N(C)c2c(C)cc(C#Cc3ccc(-c4ccccc4)cc3)cc2C(=O)NO)cc1 [Example 353, 5-Biphenyl-4-ylethynyl-N-hydroxy-2-[(4-methoxy-benzenesulfonyl)-methyl-amino]-3-methyl-benzamide] |
| – | – | – | 6.54 | 6.15 | 7.55 | – | – | 7.70 | – | – | COc1ccc(S(=O)(=O)N(C)c2c(C)cc(CCc3ccc(-c4ccccc4)cc3)cc2C(=O)NO)cc1 [Example 355, 5-(2-Biphenyl-4-yl-ethyl)-N-hydroxy-2-[(4-methoxy-benzenesulfonyl)-methyl-amino]-3-methyl-benzamide] |
| – | – | – | 5.98 | – | 7.00 | – | – | 6.97 | – | 25%(10) | CCCCCCCCCCC#Cc1cc(C)c(N(C)S(=O)(=O)c2ccc(OC)cc2)c(C(=O)NO)c1 [Example 358, 5-Dodec-1-ynyl-N-hydroxy-2-[(4-methoxy-benzenesulfonyl)-methyl-amino]-3-methyl-benzamide] |
| – | – | – | 5.85 | – | 6.28 | – | – | 5.90 | – | 14%(10) | CCCCCCCCCCCCc1cc(C)c(N(C)S(=O)(=O)c2ccc(OC)cc2)c(C(=O)NO)c1 [Example 360, 5-Dodecyl-N-hydroxy-2-[(4-methoxy-benzenesulfonyl)-methyl-amino]-3-methyl-benzamide] |
| – | – | – | 6.86 | 6.35 | 7.70 | – | – | 7.27 | – | – | COCc1cccc(C(=O)NO)c1N(Cc1cccnc1)S(=O)(=O)c1ccc(OC)cc1 [Example 363, N-Hydroxy-2-[(4-methoxy-benzenesulfonyl)-pyridin-3-ylmethyl-amino]-3-methoxymethyl-benzamide] |
| – | – | – | 5.57 | 6.22 | 7.92 | – | – | 7.89 | – | – | COc1ccc(S(=O)(=O)N(Cc2cccnc2)c2c(C(=O)NO)cccc2C(=O)OC(C)(C)C)cc1 [Example 367, N-Hydroxy-2-[(4-methoxy-benzenesulfonyl)-pyridin-3-ylmethyl-amino]-isophthalamic acid tert-butyl ester] |

| Structure (SMILES) | inhibition at 1 µM [1] | inhibition at 1 µM [2] | inhibition at 1 µM [3] | pIC50 ([4]; read-out: TACE IC50) | pIC50 [1] | pIC50 [2] | pIC50 [3] | pIC50 [4] | pIC50 ([3]; read-out: MMP-13 IC50) | inhibition at 1 µM ([4]; at 1µM concentration) | MMP-1 % inhibition [1] |
| --- | --- | --- | --- | --- | --- | --- | --- | --- | --- | --- | --- |
| COc1ccc(S(=O)(=O)N(Cc2ccccc2)c2c(OCCO[Si](C)(C)C(C)(C)C)cccc2C(=O)NO)cc1 [Example 344, 2-[Benzyl-(4-methoxy-benzenesulfonyl)-amino]-3-[2-(tert-butyl-dimethyl-silanyloxy)-ethoxy]-N-hydroxy-benzamide] | – | – | – | 6.28 | 5.93 | 7.16 | – | – | 6.49 | – | – |
